{"source": "paper PMC10725991", "about": "“Kaempferol is a novel antiviral agent against channel catfish virus infection through blocking viral attachment and penetration in vitro” (Frontiers in Veterinary Science, 2023)", "key": {"[1]": {"system": "CCV ORF 39 and ORF 59 proteins in CCO cells", "test": "Western blot of CCV ORF 39 and ORF 59 proteins", "assay_type": "cell-based, Channel catfish virus (CCV, Ictalurid herpesvirus 1)", "method": "To test the anti-CCV effect of tested compounds in the preliminary screening, CCO cells were seeded in 24-well plates and cultured to reach approximately 90% confluence in each well at 28°C. Subsequently, the cells were infected with the CCV at 10^3 TCID50/ml at 28°C for 1 h. After that, the cell culture medium was replaced using an isopycnic DMEM medium containing the maximum safe concentration of indicated compounds. CCV-infected cells treated with DMSO served as a negative control, whereas CCV-infected cells treated with acyclovir (2.5 μg/mL) served as a positive control ([33]). After 36 h treatment, cell lysates were collected to test the CCV gene expression by the RT-qPCR, and the percentage inhibition of CCV infection by individual compound was calculated. According to the percentage inhibition results, we further detected the antiviral activity of kaempferol at maximum safe concentration by viral cytopathic effects (CPE) and western blot analysis. […]\nFor the western blot assay, firstly, cells were lysed with cell lysis buffer (Beyotime, China), and then the concentrations of protein samples collected from cell lysates protein were determined using the Enhanced BCA Protein Assay Kit (Beyotime, China). […] Finally, the signals were detected using an ECL kit (Beyotime, China) according to the manufacturer’s instructions."}, "[2]": {"system": "CCV (strain VR-665) in CCO cells", "test": "Anti-CCV replication assay of kaempferol, RT-qPCR", "assay_type": "cell-based, Channel catfish virus (CCV, Ictalurid herpesvirus 1)", "method": "The CCO cells were infected with the CCV at 10^3 TCID50/ml at 28°C for 1 h. Then, the cell culture medium was replaced using isopycnic DMEM medium containing various concentrations kaempferol (2.5, 5, 7.5, 10, 12.5, and 15 μg/mL). The cells without exposure to kaempferol and CCV were set as the mock control. CCV-infected cells served as a negative control. 24 and 36 h post-infection, the cells were collected and subjected to the RT-qPCR and western blot analysis for the viral gene and protein expression. Meanwhile, the cells were treated as described above for the determination of virus titer. […]\nFor RT-qPCR, the total RNA was isolated from CCV-infected cells using RnaExTM (Trizol)^a reagent (GENERAY, China), and reversed transcribed applying a HiScript III RT SuperMix with gDNA wiper (Vazyme, China) following the manufacturer’s instructions. Quantitative PCR was performed with a LightCycler 96 Real-Time PCR Detection System (Roche, USA) using ChamQ Universal SYBR qPCR Master Mix (Vazyme, China) with the following cycle conditions: 95°C for 30 s, followed by 40 cycles of 95°C for 10 s and 60°C for 30 s. […] Fold changes of the selected gene vs 18 s (internal reference) were calculated by the 2^−△△Ct method.\nFigure 3 The anti-CCV activity by different concentration of kaempferol in vitro. […] The p value was determined by *p < 0.05, **p < 0.01."}}, "data": [{"smiles": "O=c1c(O)c(-c2ccc(O)cc2)oc2cc(O)cc(O)c12", "note": "[Kaempferol]", "values": [{"measurement": "viral protein (CCV ORF 39, ORF 59) level, western blot", "setting": "[1]; kaempferol 10 μg/mL to 15 μg/mL, 24 and 36 h", "value": "nearly undetectable"}, {"measurement": "expression of viral proteins (CCV ORF 39, ORF 59), western blot", "setting": "[1]; maximum safe concentration (47.53 μg/mL), 36 h post-infection", "value": "suppressed the expression of viral proteins"}, {"measurement": "inhibitory effect of CCV-ORF 39 and CCV-ORF 59", "setting": "[2]; 24 h post viral infection, kaempferol 2.5-15 μg/mL, RT-qPCR", "value": "over 85%"}, {"measurement": "viral mRNA levels compared with the control group", "setting": "[2]; 36 h post viral infection, kaempferol 10 μg/mL to 15 μg/mL", "value": "significantly lower"}]}]}
